Source: article PMC7413254 (Nature Communications, 2020)
Like-named read-outs stand apart in the source and are kept apart here.

Experiments:
[1] = target: T1, PfCRT^Ecu1110 (Plasmodium falciparum, UniProt Q9N623, A220S/I356L/K76T/N326D); assay: [3H]CQ uptake into Xenopus oocytes, cis-inhibition by unlabelled solute; assay type: cell-based; details: for Uptake of [3H]CQ (% PfCRTEcu1110 control), cis-inhibition / PfCRT-mediated [3H]CQ transport, cis-inhibition (% PfCRTEcu1110 control): PfCRTEcu1110 oocytes; for Uptake of [3H]CQ (% PfCRTEcu1110 control), cis-inhibition: total [3H]CQ transport, normalised to the oocyte type control; for PfCRT-mediated [3H]CQ transport, cis-inhibition (% PfCRTEcu1110 control): background [3H]CQ accumulation subtracted, normalised to oocyte type control; for [3H]CQ transport (% PfCRTEcu1110 control), cis-inhibition, PfCRTEcu1110: PfCRT-mediated component (background subtracted), sheet title says normalised to PfCRTDd2 control, mean ± SEM, SEM
T1 sequence (Q9N623 whole entry A220S/I356L/K76T/N326D): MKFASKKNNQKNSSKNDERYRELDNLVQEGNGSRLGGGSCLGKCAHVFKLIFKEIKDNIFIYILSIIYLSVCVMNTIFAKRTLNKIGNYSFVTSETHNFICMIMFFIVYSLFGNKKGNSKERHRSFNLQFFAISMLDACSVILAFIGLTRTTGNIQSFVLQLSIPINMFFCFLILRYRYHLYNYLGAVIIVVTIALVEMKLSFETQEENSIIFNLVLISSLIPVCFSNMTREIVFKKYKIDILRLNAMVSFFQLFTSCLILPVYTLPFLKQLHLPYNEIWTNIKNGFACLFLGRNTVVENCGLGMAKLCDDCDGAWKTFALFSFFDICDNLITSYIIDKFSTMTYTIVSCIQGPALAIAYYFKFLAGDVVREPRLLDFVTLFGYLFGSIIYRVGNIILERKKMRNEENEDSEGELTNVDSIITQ
Procedure, shortened: (§1)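 Transport runs from the acidic bath into the cytosol, analogous to PfCRT-mediated efflux out of the vacuole. Non-expressing oocytes act as background.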

[2] = target: T2, PfCRT^Dd2 (Plasmodium falciparum, UniProt Q9N623, A220S/I356T/K76T/M74I/N326S/N75E/Q271E/R371I); assay: as above; assay type: cell-based; details: PfCRTDd2 oocytes, background [3H]CQ accumulation subtracted, normalised to oocyte type control
T2 sequence (Q9N623 whole entry A220S/I356T/K76T/M74I/N326S/N75E/Q271E/R371I): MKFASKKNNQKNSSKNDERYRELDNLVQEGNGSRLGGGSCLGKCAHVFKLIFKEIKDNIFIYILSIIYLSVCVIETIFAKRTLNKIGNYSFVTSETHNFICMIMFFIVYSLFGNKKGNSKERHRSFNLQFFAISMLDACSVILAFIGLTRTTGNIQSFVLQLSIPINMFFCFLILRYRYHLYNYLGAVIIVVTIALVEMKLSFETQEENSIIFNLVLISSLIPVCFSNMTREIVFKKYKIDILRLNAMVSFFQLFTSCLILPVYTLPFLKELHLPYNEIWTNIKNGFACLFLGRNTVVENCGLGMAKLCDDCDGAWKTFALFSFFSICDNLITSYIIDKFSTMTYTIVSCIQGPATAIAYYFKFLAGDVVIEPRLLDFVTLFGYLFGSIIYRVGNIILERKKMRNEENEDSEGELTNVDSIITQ
Procedure, shortened: as §1

[3] = system: non-expressing oocytes; assay type: cell-based, Xenopus laevis; details: non-expressing oocytes, total [3H]CQ transport, normalised to the oocyte type control
Procedure, shortened: (§2)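 Oocytes (ten per treatment, ≥4 independent frogs/days) were preloaded by injecting VF-6 in 25 nL ND96 at pH 5.0, 5.5, 6.0 or 7.0, or Na^+-free choline buffer, then uptake run 1.5 h, 27.5 °C, ND96 pH 5.5 by default. Internal concentrations assumed ~400 nL oocyte volume.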

[4] = system: non-expressing oocytes; assay: cells; assay type: cell-based, Xenopus laevis; details: non-expressing oocytes, total [3H]CQ transport, normalised to the oocyte type control
Procedure, shortened: as §1

[5] = target: T3, PfNT1 (Plasmodium falciparum, UniProt Q8IDM6); assay: cell-based; assay type: cell-based; details: PfNT1 oocytes, total [3H]CQ transport, normalised to the oocyte type control
T3 construct: expressed in transfected cells; host or cells: Xenopus laevis oocytes (stage V-VI), cRNA-injected
T3 sequence (Q8IDM6 whole entry): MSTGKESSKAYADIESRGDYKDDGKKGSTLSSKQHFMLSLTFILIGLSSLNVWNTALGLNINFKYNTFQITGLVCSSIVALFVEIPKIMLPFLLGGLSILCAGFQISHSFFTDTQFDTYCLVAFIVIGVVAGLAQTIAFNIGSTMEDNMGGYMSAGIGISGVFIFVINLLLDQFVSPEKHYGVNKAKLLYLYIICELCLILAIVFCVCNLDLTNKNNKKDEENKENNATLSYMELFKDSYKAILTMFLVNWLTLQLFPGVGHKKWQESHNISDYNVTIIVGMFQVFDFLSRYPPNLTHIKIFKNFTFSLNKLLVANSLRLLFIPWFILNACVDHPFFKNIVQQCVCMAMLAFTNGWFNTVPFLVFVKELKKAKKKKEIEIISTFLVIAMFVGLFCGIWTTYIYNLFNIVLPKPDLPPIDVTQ
Procedure, shortened: as §2

[6] = target: T1, PfCRT^Ecu1110; assay: cell-based; assay type: cell-based; details: for Uptake of [3H]CQ (% PfCRTEcu1110 control), trans-stimulation / PfCRT-mediated [3H]CQ transport, trans-stimulation (% PfCRTEcu1110 control): PfCRTEcu1110 oocytes; for Uptake of [3H]CQ (% PfCRTEcu1110 control), trans-stimulation: total [3H]CQ transport, normalised to the oocyte type control; for PfCRT-mediated [3H]CQ transport, trans-stimulation (% PfCRTEcu1110 control): normalised to oocyte type control; for [3H]CQ transport (% PfCRTDd2 control), trans-stimulation, PfCRTEcu1110: PfCRT-mediated component (background subtracted), sheet title says normalised to PfCRTDd2 control, mean ± SEM, SEM
Procedure, shortened: as §2

[7] = target: T2, PfCRT^Dd2; assay: cell-based; assay type: cell-based; details: for Uptake of [3H]CQ (% PfCRTDd2 control), trans-stimulation / PfCRT-mediated [3H]CQ transport, trans-stimulation (% PfCRTDd2 control): PfCRTDd2 oocytes; for Uptake of [3H]CQ (% PfCRTDd2 control), trans-stimulation: total [3H]CQ transport, normalised to the oocyte type control; for PfCRT-mediated [3H]CQ transport, trans-stimulation (% PfCRTDd2 control): normalised to oocyte type control; for [3H]CQ transport (% PfCRTDd2 control), trans-stimulation, PfCRTDd2: PfCRT-mediated component (background subtracted), mean ± SEM, SEM
Procedure, shortened: as §2

[8] = target: T4, PfCRT^3D7 (Plasmodium falciparum, UniProt Q8IBZ9); assay: cell-based; assay type: cell-based; details: PfCRT3D7 oocytes; for Uptake of [3H]CQ (% PfCRT3D7 control), trans-stimulation: total [3H]CQ transport, normalised to the oocyte type control; for PfCRT-mediated [3H]CQ transport, trans-stimulation (% PfCRT3D7 control): normalised to oocyte type control
T4 sequence (Q8IBZ9 59-398): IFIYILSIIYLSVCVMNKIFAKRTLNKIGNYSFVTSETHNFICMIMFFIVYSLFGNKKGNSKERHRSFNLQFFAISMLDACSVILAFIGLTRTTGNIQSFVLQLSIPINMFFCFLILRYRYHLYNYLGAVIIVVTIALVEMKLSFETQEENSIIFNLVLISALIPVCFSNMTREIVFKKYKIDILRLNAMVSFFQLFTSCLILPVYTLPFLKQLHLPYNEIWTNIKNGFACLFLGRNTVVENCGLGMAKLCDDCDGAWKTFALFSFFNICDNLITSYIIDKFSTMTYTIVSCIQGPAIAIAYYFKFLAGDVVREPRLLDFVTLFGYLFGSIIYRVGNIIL
Procedure, shortened: as §2

[9] = target: T4, PfCRT^3D7; assay: cell-based; assay type: cell-based; details: PfCRT3D7 oocytes, total [3H]CQ transport, normalised to the oocyte type control
Procedure, shortened: as §1

[10] = [test solute]i = 45 mM (30 mM for some solutes due to solubility)
[11] = [test solute]i = 5 mM (intracellular)
[12] = [test solute]i = 45 mM (intracellular; 30 mM for some solutes due to solubility)
[13] = [test solute]i = 5 mM (injected)

PENF [PEF-4]
Uptake of [3H]CQ (% PfCRTEcu1110 control), cis-inhibition ([1]; [test solute] = 0.5 mM): 55 ± 4.2 % PfCRTEcu1110 control | Uptake of [3H]CQ (% PfCRTEcu1110 control), cis-inhibition ([1]; [test solute] = 1 mM): 45 ± 4.7 % PfCRTEcu1110 control | Uptake of [3H]CQ (% PfCRTEcu1110 control), cis-inhibition ([1]; [test solute] = 2 mM): 34 ± 3.4 % PfCRTEcu1110 control | PfCRT-mediated [3H]CQ transport, cis-inhibition (% PfCRTEcu1110 control) ([1]; [test solute] = 0.5 mM): 49 ± 2.6 % PfCRTEcu1110 control | PfCRT-mediated [3H]CQ transport, cis-inhibition (% PfCRTEcu1110 control) ([1]; [test solute] = 1 mM): 40 ± 3.5 % PfCRTEcu1110 control | PfCRT-mediated [3H]CQ transport, cis-inhibition (% PfCRTEcu1110 control) ([1]; [test solute] = 2 mM): 28 ± 2.1 % PfCRTEcu1110 control | [3H]CQ transport (% PfCRTEcu1110 control), cis-inhibition, PfCRTEcu1110 ([1]; [test solute] = 0.5 mM): 15 ± 0.1 % PfCRTEcu1110 control | [3H]CQ transport (% PfCRTEcu1110 control), cis-inhibition, PfCRTEcu1110 ([1]; [test solute] = 1 mM): 13 ± 0.3 % PfCRTEcu1110 control | [3H]CQ transport (% PfCRTEcu1110 control), cis-inhibition, PfCRTEcu1110 ([1]; [test solute] = 2 mM): 9.0 ± 0.01 % PfCRTEcu1110 control | PfCRT-mediated [3H]CQ transport, cis-inhibition (% PfCRTDd2 control) ([2]; [test solute] = 0.5 mM): 52 ± 2.0 % PfCRTDd2 control | PfCRT-mediated [3H]CQ transport, cis-inhibition (% PfCRTDd2 control) ([2]; [test solute] = 1 mM): 37 ± 2.1 % PfCRTDd2 control | PfCRT-mediated [3H]CQ transport, cis-inhibition (% PfCRTDd2 control) ([2]; [test solute] = 2 mM): 17 ± 0.3 % PfCRTDd2 control | Uptake of [3H]CQ (% non-expressing oocyte control), trans-stimulation ([3]; [test solute]i = 5 mM): 97 ± 3.5 % non-expressing oocyte control | Uptake of [3H]CQ (% non-expressing oocyte control), trans-stimulation [3, 10]: 100 ± 3.2 % non-expressing oocyte control | Uptake of [3H]CQ (% non-expressing oocyte control), cis-inhibition ([4]; [test solute] = 0.5 mM): 99 ± 5.8 % non-expressing oocyte control | Uptake of [3H]CQ (% non-expressing oocyte control), cis-inhibition ([4]; [test solute] = 1 mM): 98 ± 4.6 % non-expressing oocyte control | Uptake of [3H]CQ (% non-expressing oocyte control), cis-inhibition ([4]; [test solute] = 2 mM): 99 ± 4.4 % non-expressing oocyte control | Uptake of [3H]CQ (% PfNT1 control), trans-stimulation ([5]; [test solute]i = 5 mM): 101 ± 2.2 % PfNT1 control | Uptake of [3H]CQ (% PfNT1 control), trans-stimulation [5, 10]: 99 ± 2.7 % PfNT1 control | Uptake of [3H]CQ (% PfCRTEcu1110 control), trans-stimulation ([6]; [test solute]i = 5 mM): 121 ± 3.2 % PfCRTEcu1110 control | Uptake of [3H]CQ (% PfCRTEcu1110 control), trans-stimulation [6, 10]: 132 ± 3.7 % PfCRTEcu1110 control | PfCRT-mediated [3H]CQ transport, trans-stimulation (% PfCRTEcu1110 control) [6, 11]: 118 ± 1.1 % PfCRTEcu1110 control | PfCRT-mediated [3H]CQ transport, trans-stimulation (% PfCRTEcu1110 control) [6, 12]: 128 ± 2.0 % PfCRTEcu1110 control | [3H]CQ transport (% PfCRTDd2 control), trans-stimulation, PfCRTEcu1110 [6, 13]: 36 ± 1.6 % PfCRTEcu1110 control | [3H]CQ transport (% PfCRTDd2 control), trans-stimulation, PfCRTEcu1110 [6, 10]: 39 ± 1.3 % PfCRTEcu1110 control | Uptake of [3H]CQ (% PfCRTDd2 control), trans-stimulation ([7]; [test solute]i = 5 mM): 102 ± 2.2 % PfCRTDd2 control | Uptake of [3H]CQ (% PfCRTDd2 control), trans-stimulation [7, 10]: 99 ± 2.8 % PfCRTDd2 control | PfCRT-mediated [3H]CQ transport, trans-stimulation (% PfCRTDd2 control) [7, 11]: 100 ± 3.2 % PfCRTDd2 control | PfCRT-mediated [3H]CQ transport, trans-stimulation (% PfCRTDd2 control) [7, 12]: 97 ± 3.2 % PfCRTDd2 control | [3H]CQ transport (% PfCRTDd2 control), trans-stimulation, PfCRTDd2 [7, 13]: 100 ± 3.2 % PfCRTDd2 control | [3H]CQ transport (% PfCRTDd2 control), trans-stimulation, PfCRTDd2 [7, 10]: 97 ± 3.2 % PfCRTDd2 control | Uptake of [3H]CQ (% PfCRT3D7 control), trans-stimulation ([8]; [test solute]i = 5 mM): 135 ± 6.8 % PfCRT3D7 control | Uptake of [3H]CQ (% PfCRT3D7 control), trans-stimulation [8, 10]: 151 ± 8.0 % PfCRT3D7 control | PfCRT-mediated [3H]CQ transport, trans-stimulation (% PfCRT3D7 control) [8, 11]: 128 ± 3.6 % PfCRT3D7 control | PfCRT-mediated [3H]CQ transport, trans-stimulation (% PfCRT3D7 control) [8, 12]: 145 ± 4.7 % PfCRT3D7 control | Uptake of [3H]CQ (% PfCRT3D7 control), cis-inhibition ([9]; [test solute] = 0.5 mM): 100 ± 5.3 % PfCRT3D7 control | Uptake of [3H]CQ (% PfCRT3D7 control), cis-inhibition ([9]; [test solute] = 1 mM): 98 ± 3.5 % PfCRT3D7 control | Uptake of [3H]CQ (% PfCRT3D7 control), cis-inhibition ([9]; [test solute] = 2 mM): 100 ± 4.4 % PfCRT3D7 control
